From patent US10039761B2, “Co-crystals and pharmaceutical compositions comprising the same” (Vertex Pharmaceuticals Incorporated, priority 2013, dated 2018)

Assays:
[1] = Body weight in OD26749 xenograft studies; format: in vivo, nude mice; conditions: bridging study; Compound (1) PO 100 mg/kg bid (0, 4 h), 2 Gy ([…]) qdx3; Day 1
[2] = Body weight in LU-01-0030 xenograft studies; format: in vivo, mice
Experimental: The in vivo efficacies of Compounds (1) and (2) were evaluated alone and in combination with three consecutive days of focused IR in the primary LU-01-0030 NSCLC subcutaneous xenograft model. The dose-dependent anti-tumor activity of Compound (2) alone and in combination with focused beam IR was evaluated in the LU-01-0030 model. […] Mice in the combination treatment groups were monitored (without treatment) for up to 90 days as some mice had no evidence of tumor burden.

[3] = tested on: OD26749 primary NSCLC xenograft; assay: OD26749 primary NSCLC xenograft efficacy with whole body IR; format: in vivo, nude mice
Experimental: The in vivo efficacies of Compounds (1) and (2) in combination with whole body IR were examined in the OD26749 primary NSCLC (non-small cell lung cancer) and the OE-19 GEJ cell line xenograft models. In these studies, Compounds (1) and (2) were formulated with 16% captisol/1% PVP/1% HPMC E5 pH2.
The in vivo efficacy of Compound (1) was evaluated in the primary OD26749 NSCLC subcutaneous xenograft model. […] […] Compound (1) was administered PO (tid at 0, 3, and 7 h) at 100 mg/kg alone or with a single 2 Gy dose of whole body IR at 3.25 h. […] Compound (1) in combination with 2 Gy whole body IR induced significant tumor regression (% T/Ti of −75; P<0.01) compared to IR alone.
The efficacies of Compounds (1) and (2) in combination with whole body IR (2 Gy) were evaluated in the OD26749 primary NSCLC xenograft model at a Compound ([…]) and Compound (2) dose levels of 50 mg/kg and 100 mg/kg PO bid (0 and 4 h). Two cycles of whole body IR (2 Gy) were given 15 min after the first compound administration (0.25 hour). Control animals were administered vehicle PO bid (0 and 4 h). […]
(§1) In Tables 14 and 15, for example, PO bid (0, 4 h) indicates Compound (2) is administered twice (bid) at time point 0 and then 4 hours after; IR (0.25 h) qdx3 indicates radiation is administered 15 minutes (0.25 h) after the administration of Compound (2) (0 h), and once a day for 3 days (qdx3); q7dx2 indicates once a week for two weeks; qod indicates every other day twice (e.g., Day 1 and Day 3); and paclitaxel q7dx3 (−0.25 h), carboplatin q7dx3 (−0.25 h) indicates administration of paclitaxel and carboplatin 15 minutes prior to the administration of Compound (2), followed by additional administration of Compound (2) after 4 hours after the first administration of Compound (2).

[4] = Blood exposure in OD26749 bridging study; format: in vivo, nude mice; conditions: nude, mouse, whole blood; 100 mg/kg PO bid (0 and 4 h) combination groups with 2 Gy whole body IR
[5] = Body weight in OE-19 xenograft studies; format: in vivo
Experimental: The OE-19 cell line xenograft model was used to evaluate the efficacy of Compounds (1) and (2) alone and in combination with IR. Two cycles of treatment were administered (Day 0 and Day 7) as performed in the OD26749 model above.

[6] = tested on: LU-01-0030 primary NSCLC subcutaneous xenograft; assay: LU-01-0030 primary NSCLC xenograft efficacy with focused IR; format: in vivo, mice
Experimental: The in vivo efficacies of Compounds (1) and (2) were evaluated alone and in combination with three consecutive days of focused IR in the primary LU-01-0030 NSCLC subcutaneous xenograft model. The dose-dependent anti-tumor activity of Compound (2) alone and in combination with focused beam IR was evaluated in the LU-01-0030 model.
as §1

primary human tumors = assay: Primary tumor chemosensitivity assay (TCA), Cell Titer-Glo, Bliss; format: cell-based
Experimental: Primary human tumors tested in vitro may provide a better indicator of efficacy of DNA PK inhibition than immortalized cancer cell lines due to their increased heterogeneity and closer proximity to the patient tumor from which they were derived. […] Dissociated cells from mouse-passaged tumors were cultured for 6 days after combination exposure and then assessed for viability using the Cell Titer-Glo assay. The Bliss Additivity statistical model was used to determine the degree of synergy, additivity, or antagonism of each combination treatment.

[7] = tested on: ST-02-0004 primary GEJ tumor xenograft; assay: ST-02-0004 primary GEJ tumor xenograft efficacy with focused IR; format: in vivo
Experimental: The in vivo activities of Compounds (1) and (2) were compared in combination with focused beam IR in a primary gastric cancer subcutaneous xenograft model. In the ST 02 0004 model, focused IR was administered on three consecutive days alone and in combination with Compound (1) or Compound (2).
The anti-tumor activity of Compound (2) in combination with focused-beam IR and the standard of care agents, paclitaxel and carboplatin, was also evaluated in the ST 02 0004 model. Treatment with paclitaxel, carboplatin, and IR was administered once per week for three weeks alone or in combination with Compound (2).
as §1

CNC(=O)c1ccnc2c([C@H](C)CNc3cc(-c4cnc(C)nc4)ncn3)cccc12 [Compound (1), (S)-N-methyl-8-(1-((2′-methyl-[4,5′-bipyrimidin]-6-yl)amino)propan-2-yl)quinoline-4-carboxamide]
Max. body wt loss (%) [1]: −2.40% | Max. body wt loss (%) ([2]; Day 24 study, PO 10 mg/kg bid (0, 4 h) qdx3, 2 Gy IR qdx3 ([…]), Day 4): −1.46% | Max. body wt loss (%) ([2]; Day 24 study, PO 25 mg/kg bid (0, 4 h) qdx3, 2 Gy IR qdx3 ([…]), Day 4): −2.03% | Max. body wt loss (%) ([2]; Day 24 study, PO 50 mg/kg bid (0, 4 h) qdx3, 2 Gy IR qdx3 ([…]), Day 4): −1.19% | Max. body wt loss (%) ([2]; Day 24 study, PO 50 mg/kg bid (0, 4 h) qodx2, 2 Gy IR qdx3 ([…]), Day 4): −1.59% | Max. body wt loss (%) ([2]; Day 30 study, PO 100 mg/kg bid (0, 4 h) qdx3, 2 Gy IR ([…]) qdx3, Day 4): −1.42% | Max. body wt loss (%) ([2]; Day 30 study, PO 100 mg/kg tid (0, 3, 7 h) qdx3, 2 Gy IR ([…]) qdx3, Day 4): −1.58% | Max. body wt loss (%) ([2]; Day 30 study, PO 100 mg/kg tid (0, 3, 7 h) qdx5, 2 Gy IR ([…]) qdx3, Day 4): −1.68% | Max. body wt loss (%) ([2]; Day 30 study, PO 100 mg/kg tid (0, 3, 7 h) qdx5, no IR, Day 6): −0.63% | Max. body wt loss (%) ([2]; Day 31 study, PO 10 mg/kg bid (0, 4 h) qdx3, 2 Gy IR ([…]), Day 3): −3.33% | Max. body wt loss (%) ([2]; Day 31 study, PO 50 mg/kg bid (0, 4 h) qdx1, 2 Gy IR ([…]), Day 1): −0.59% | Max. body wt loss (%) ([2]; Day 31 study, PO 50 mg/kg bid (0, 4 h) qdx2, 2 Gy IR ([…]), Day 1): −2.11% | Max. body wt loss (%) ([2]; Day 31 study, PO 50 mg/kg bid (0, 4 h) qdx3, 2 Gy IR ([…]), Day 3): −0.94% | Max. body wt loss (%) ([2]; Day 31 study, PO 50 mg/kg qdx3, 2 Gy IR ([…]), Day 1): −2.07% | Max. body wt loss (%) ([2]; first Day 27 study, PO 25 mg/kg bid (0, 4 h) qdx3, 2 Gy ([…]) IR qdx3, Day 2): −5.81% | Max. body wt loss (%) ([2]; first Day 27 study, PO 50 mg/kg bid (0, 4 h) qdx3, 2 Gy ([…]) IR qdx3, Day 3): −5.70% | Max. body wt loss (%) ([2]; first Day 27 study, PO 100 mg/kg bid (0, 4 h) qdx3, 2 Gy ([…]) IR qdx3, Day 3): −2.87% | Max. body wt loss (%) ([2]; first Day 27 study, PO 100 mg/kg qdx3, 2 Gy ([…]) IR qdx3, Day 2): −3.68% | Max. body wt loss (%) ([2]; second Day 27 study, PO 10 mg/kg bid (0, 4 h) qdx3, 2 Gy ([…]) IR qdx3, Day 2): −5.81% | Max. body wt loss (%) ([2]; second Day 27 study, PO 25 mg/kg bid (0, 4 h) qdx3, 2 Gy ([…]) IR qdx3, Day 3): −5.70% | Max. body wt loss (%) ([2]; second Day 27 study, PO 50 mg/kg bid (0, 4 h) qdx2, 2 Gy ([…]) IR qdx3, Day 3): −2.87% | Max. body wt loss (%) ([2]; second Day 27 study, PO 50 mg/kg bid (0, 4 h) qdx3, 2 Gy ([…]) IR qdx3, Day 2): −3.68% | time to tumor doubling (TTD) ([3]; Compound (1) single agent group, 100 mg/kg tid, twice one week apart): 2 to 3 days | % T/C (Day 29) ([3]; PO 50 mg/kg bid (0, 4 h), 2 Gy IR ([…]) q7dx2): 11.7% | % T/Ti (Day 29) ([3]; PO 100 mg/kg bid (0, 4 h), 2 Gy IR ([…]) q7dx2): −3.1% | % T/Ti (Day 16) ([3]; PO 100 mg/kg tid (0, 3, 7 h) q7dx2, 2 Gy q7dx2 (3.25 h) whole body IR): −75% | % T/C (Day 16) ([3]; PO 100 mg/kg tid (0, 3, 7 h) q7dx2, no IR): 74% | time to tumor doubling (TTD) ([3]; combination group: 100 mg/kg tid with 2 Gy whole body IR, given twice one week apart): 33.4 days | AUC [4]: 65800 ng·h/mL | Max. body weight loss (%) ([5]; PO 100 mg/kg bid (0, 4 h) qd7x2, 2 Gy IR qd7x2 ([…]), Day 1): −3.50% | Max. body weight loss (%) ([5]; PO 100 mg/kg bid (0, 4 h) qd7x 2, no IR, Day 8): −1.70% | % T/Ti (Day 31) ([6]; PO 10 mg/kg bid (0, 4 h) qdx3, 2 Gy IR ([…])): −5.3% | % T/Ti (Day 24) ([6]; PO 10 mg/kg bid (0, 4 h) qdx3, 2 Gy IR qdx3 ([…])): −29.8% | % T/Ti (Day 24) ([6]; PO 25 mg/kg bid (0, 4 h) qdx3, 2 Gy IR qdx3 ([…])): −75.2% | % T/C (Day 31) ([6]; PO 50 mg/kg bid (0, 4 h) qdx1, 2 Gy IR ([…])): 7.2% | % T/Ti (Day 31) ([6]; PO 50 mg/kg bid (0, 4 h) qdx2, 2 Gy IR ([…])): −1.7% | % T/Ti (Day 31) ([6]; PO 50 mg/kg bid (0, 4 h) qdx3, 2 Gy IR ([…])): −14.1% | % T/Ti (Day 24) ([6]; PO 50 mg/kg bid (0, 4 h) qdx3, 2 Gy IR qdx3 ([…])): −87.6% | % T/Ti (Day 24) ([6]; PO 50 mg/kg bid (0, 4 h) qodx2, 2 Gy IR qdx3 ([…])): −79.9% | % T/C (Day 31) ([6]; PO 50 mg/kg qdx3, 2 Gy IR ([…])): 4.5% | % T/Ti (Day 30) ([6]; PO 100 mg/kg bid (0, 4 h) qdx3, 2 Gy IR ([…]) qdx3): −85.6% | % T/Ti (Day 30) ([6]; PO 100 mg/kg tid (0, 3, 7 h) qdx3, 2 Gy IR ([…]) qdx3): −90.6% | % T/Ti (Day 30) ([6]; PO 100 mg/kg tid (0, 3, 7 h) qdx5, 2 Gy IR ([…]) qdx3): −91.6% | % T/C (Day 30) ([6]; PO 100 mg/kg tid (0, 3, 7 h) qdx5, no IR): 79.1% | % T/Ti (Day 27) ([6]; first Day 27 study, PO 25 mg/kg bid (0, 4 h) qdx3, 2 Gy ([…]) IR qdx3): −80.3% | % T/Ti (Day 27) ([6]; first Day 27 study, PO 50 mg/kg bid (0, 4 h) qdx3, 2 Gy ([…]) IR qdx3): −87.8% | % T/Ti (Day 27) ([6]; first Day 27 study, PO 100 mg/kg bid (0, 4 h) qdx3, 2 Gy ([…]) IR qdx3): −90.1% | % T/Ti (Day 27) ([6]; first Day 27 study, PO 100 mg/kg qdx3, 2 Gy ([…]) IR qdx3): −76.5% | % T/Ti (Day 27) ([6]; second Day 27 study, PO 10 mg/kg bid (0, 4 h) qdx3, 2 Gy ([…]) IR qdx3): −80.3% | % T/Ti (Day 27) ([6]; second Day 27 study, PO 25 mg/kg bid (0, 4 h) qdx3, 2 Gy ([…]) IR qdx3): −87.8% | % T/Ti (Day 27) ([6]; second Day 27 study, PO 50 mg/kg bid (0, 4 h) qdx2, 2 Gy ([…]) IR qdx3): −90.1% | % T/Ti (Day 27) ([6]; second Day 27 study, PO 50 mg/kg bid (0, 4 h) qdx3, 2 Gy ([…]) IR qdx3): −76.5% | tumors additive or synergistic / tumors tested (primary human tumors; Compound (1) (10× and 30× IC50) with bleomycin or radiation): 29/29 | tumors with additivity / tumors tested (primary human tumors; Compound (1) with 5-FU): 5/5 | tumors with strong synergy / tumors tested (primary human tumors; Compound (1) with bleomycin): 9/29 | tumors with synergy or additivity / tumors tested (primary human tumors; Compound (1) with carboplatin): 5/5 | tumors with antagonism (primary human tumors; Compound (1) with cisplatin): one tumor showed antagonism | tumors with synergy or additivity / tumors tested (primary human tumors; Compound (1) with cisplatin): 9/10 | tumors with additivity / tumors tested (primary human tumors; Compound (1) with doxorubicin): 1/1 | tumors with strong synergy / tumors tested (primary human tumors; Compound (1) with etoposide): 4/4 | tumors with additivity / tumors tested (primary human tumors; Compound (1) with gemcitabine): 2/4 | tumors with antagonism / tumors tested (primary human tumors; Compound (1) with gemcitabine): 2/4 | tumors with additivity / tumors tested (primary human tumors; Compound (1) with paclitaxel): 1/5 | tumors with antagonism / tumors tested (primary human tumors; Compound (1) with paclitaxel): 1/5 | tumors with strong synergy / tumors tested (primary human tumors; Compound (1) with radiation): 3/8 | % T/Ti (Day 34) ([7]; Compound (1) PO 100 mg/kg bid (0, 4 h) qdx3, 2 Gy IR ([…]) focused): −2.8% | % T/C (Day 34) ([7]; Compound (1) PO 100 mg/kg qdx3, no IR): 95.6%
